This is an account of results in US12257225B2, “Polyoxometalate complexes and pharmaceutical compositions” (Emory University, priority 2016, dated 2025).

Several values for one entry are separate records, joined by “and”; a condition that tells them apart may be missing. Identical values can stand only once. Entries after “also recorded” stand apart in the source; their conditions may differ.

The test system of one data set is KB-3-1 cancer cell line. Briefly: Cytotoxicity, cell counting kit-8, KB-3-1. The data set is classed as cell-based, human. As to conditions: KB-3-1 cells, 72 h. As to the method: (§1) A variety of cancer or normal cells were grown in 96-well plates and treated with VPOA-6 at 0-20 μM for 72 h. Cytotoxicity was measured using cell counting kit-8.
The effective catalytic oxidation of cellular antioxidants by VPOA-6, led to an assessment of the viability of both cancer and normal cell lines in the presence of VPOA-6. Four VPOA analogues (FIG. 1B) for selectivity of VPOA-6 in killing cancer cells by cytotoxicity towards the fast-growing KB-3-1 cancer cell line.
(§2) Cell lines used in this study are as follows.

Data set [1] relates to KB-CP.5, cisplatin-resistant cervical carcinoma cell. Briefly: Cytotoxicity, cell counting kit-8, KB-CP.5. The data set is classed as cell-based, human. On the procedure: as §1
(§3) The high incidence of drug resistance is a major challenge in treatment of relapsed and refractory cancers. […] The resistance of tumor cells to platinum-based chemotherapeutics is known to be associated with increased GSH levels; whereas cancer cells with high GSH levels are frequently more sensitive to drugs that affect GSH43.
as §2

Data set [2] is described as follows: Side effects in treated tumor-bearing mice. The data set is classed as in vivo. The text has this:
Mice were then euthanized, vital organs collected and processed for histological examination.

Data set [3] has as its system KB-3-1 human cervical carcinoma. Briefly: KB-3-1 xenograft mouse model, antitumor efficacy. The data set is classed as in vivo, mice. The note with it: for tumor inhibition effect: 16 μmol/kg i.p. The source says:
In vivo antitumor effect of VPOA-6. Inhibition of human head-and-neck KB-3-1 tumor growth by VPOA-6 treatment in tumor-bearing mice. […] Mice were then euthanized, vital organs collected and processed for histological examination.
Human cervical cancer is one of the most aggressive forms of human cancer. […] Specifically when using i.p. administration, the tumor volume of VPOA-6-treated group at a dose of 40 μmol/kg was less than 40% of that control group at the end point. […] Evaluation of VPOA-6 side effects. A central issue in developing new chemotherapeutics is to minimize the side effects associated with the non-specific interaction of the drugs with normal organ tissues.

Data set [4] deals with SKOV-3, ovarian carcinoma cell. Briefly: Cytotoxicity, cell counting kit-8, SKOV-3. The data set is classed as cell-based, human. The note with it: SKOV-3 cells, 72 h. On the procedure:
as §1, §2

The subject of data set [5] is normal proliferating cells. In words: Selective killing of cancer versus normal proliferating cells. The data set is classed as cell-based. The note with it: for activity and selectivity, KB-3-1 versus normal cells: simple vanadium compounds. On the procedure: as §1
The effect of VPOA-6 on the viability of a spectrum of cancer cells and normal proliferating cells were then evaluated. […] In particular, four major types of human cancer cell lines, A549 (lung), U87 (brain), SKOV-3 (ovarian), and KB-3-1 (cervical), are highly sensitive to VPOA-6 with IC50 values below 5 μM.

The subject of another data set is KB-CP.5 cancer cells. In words: Apoptosis of cisplatin-resistant KB-CP.5 cancer cells. The data set is classed as cell-based, human. As to the method:
Apoptosis was measured after cells treated with VPOA-6 at different concentrations for 48 hr. […] NAC rescues the VPOA-6-induced apoptosis in KB-CP.5 cancer cells. Cancer cells were cultured with VPOA-6 (5 or 10 μM) with or without ROS scavenging agent NAC (3 mM) for 48 hr before apoptosis measurement.

A further data set has as its system KB-3-1 cancer cells. Briefly: Apoptosis of KB-3-1 cancer cells. The data set is classed as cell-based, human. As to the method: Apoptosis was measured after cancer cells were treated with the drug for 48 hr. […] Cancer cells were cultured with VPOA-6 (5 or 10 μM) with or without NAC (3 mM) for 48 hr before apoptosis measurement.
The subject of the next data set is KB-3-1 cells. Briefly: Total cellular ROS by flow cytometry, KB-3-1. The data set is classed as cell-based, human. The source says: Transition-metal-based polyoxoanions sometimes have the ability to catalyze a range of oxidation reactions and to generate the free radicals under mild conditions. Although it is not intended that embodiments of this disclosure be limited by any particular mechanism, it is quite reasonable that VPOA-6 may enhance the production or accumulation of reactive oxygen species (ROS) in cancer cells leading to oxidative stress and cell death. To test this hypothesis, the levels of total cellular ROS (H2O2) were measured using flow cytometry. […] To assess the functional importance of ROS induction in the VPOA-6-treated KB-3-1 cells, cells were co-treated with both VPOA-6 (5 and 10 μM) and a ROS scavenger N-acetyl-L-cysteine (NAC, 3 mM).

Data set [6] deals with cancer cells. In words: TUNEL and Annexin V-PE staining assays. The data set is classed as cell-based. As to conditions: normal proliferating cells remain alive. As to the method: (§4) One aspect of selectivity is the efficacy ratio of a therapeutic agent for normal cells versus cancer cells. In sharp contrast to cancer cells, human embryonic kidney HEK 293, human lung MRC-5, and human bronchus BEAS-2B normal cells are viable at VPOA-6 concentrations up to 20 μM. […] A fluorescent-labeling technique successfully images the uptake of VPOA-6 into living cells showing that cancer cells readily internalize this nanodrug within 8 hr even at very low concentrations (1 μM).

Data set [7] has as its system human embryonic kidney HEK 293. The data set is classed as cell-based. As to the method: as §1
One aspect of selectivity is the efficacy ratio of a therapeutic agent for normal cells versus cancer cells.
as §2

Data set [8] relates to D556, medulloblastoma cell. Briefly: Cytotoxicity, cell counting kit-8, D556. The data set is classed as cell-based. The note with it: D556 cells, 72 h. On the procedure:
as §1, §2

Data set [9] has as its system KB-8-5, multi-drug resistant cervical carcinoma cell. Briefly: Cytotoxicity, cell counting kit-8, KB-8-5. The data set is classed as cell-based, human. The note with it: KB-8-5 cells, 72 h. On the procedure:
as §1, §3, §2

Data set [10] has as its system NCI-H460, large cell lung carcinoma. In words: Cytotoxicity, cell counting kit-8, NCI-H460. The data set is classed as cell-based, human. The note with it: NCI-H460 cells, 72 h. On the procedure:
as §1, §2

Data set [11] is described as follows: Catalysis of ascorbic acid oxidation. The data set is classed as biochemical. As to conditions: air or peroxide, physiological conditions.
Data set [12] can be described thus: Catalysis of glutathione oxidation monitored by 1H NMR. The data set is classed as biochemical. On the procedure: GSH (10 mM) in deuterated PBS (1×, pH 7.4) solution at 37° C. in a cell culture incubator. The arrow on the top spectrum indicates the chemical shift of a dominant peak (absent here) in the oxidation product (GSSG).
Vanadium-containing compounds have extensive redox properties and consequently catalyze several organic substrate oxidations via free radical mechanisms. VPOA-6 is a highly efficient catalyst for oxidizing glutathione (GSH), the primary intracellular antioxidant, through both aerobic oxidation and peroxidation under physiologically relevant conditions. Glutathione is the most abundant cellular reducing metabolite with concentrations in the millimolar range and is regarded as the primary mechanism for protecting cells against oxidative stress during proliferation and growth. In order to evaluate the inherent catalytic capability of VPOA-6, proton nuclear magnetic resonance (1H NMR) spectroscopy was used to monitor the in vitro oxidation of GSH. Two reactions were designed for this purpose, GSH reacting with air (O2) and, separately, GSH reacting with peroxide (H2O2) in PBS buffer (1×pH 7.4) at 37° C.

A further data set concerns KB-CP.5 cancer cell. In words: ROS in drug-resistant KB-CP.5 cells. The data set is classed as cell-based, human.
Data set [13] concerns cancer cells. Briefly: Uptake into living cells by fluorescent labeling. The data set is classed as cell-based. The note with it: 1 μM. As to the method:
as §4

Data set [14] deals with OVCAR-3, ovarian carcinoma. In words: Cytotoxicity, cell counting kit-8, OVCAR-3. The data set is classed as cell-based, human. The note with it: OVCAR-3 cells, 72 h. On the procedure:
as §1, §2

The conditions of data set [15]: pH 7.4.
The subject of data set [16] is cancer cells.

Turning to [V6O13{(OCH2)3CCH2OH}2] [VPOA-OH], the IC50 in the data set with KB-3-1 cancer cell line stood at 21 ± 1.47 µM.
`N.N.[Cl][Pt][Cl]` [cisplatin, reference compound]: in data set [1] (KB-CP.5 versus KB-3-1), the “resistance of KB-CP.5 compared to parental KB-3-1” value is reported as “ca. 40 fold”. Also, the 50% inhibitory concentration (IC50) came to 2.8 µM in the data set with KB-3-1 cancer cell line and 4.4 µM in data set [4]. Moreover, in data set [2] (increased dosages), the mortality result was “widespread death”. For the same molecule, the “health and body weight of treated mice” value in data set [2] (treatment period) is “deteriorated health and severe body weight loss”. Further, the tumor inhibition effect result in data set [3] (weekly for 24 days) is on record as “did not exhibit any tumor inhibition effect”.
Turning to `[O]=[V](=[O])[O][V](=[O])=[O]` [V2O5], the “activity and selectivity, KB-3-1 versus normal cells” value in data set [5] is listed as “active but nonselective”.
In the case of [V6O13{(OCH2)3CNO2}2] [VPOA-NO2], in the data set on KB-3-1 cancer cell line, it took 13.7 ± 0.15 µM to reach half-maximal inhibition (IC50).
For [V6O13{(OCH2)3CCH3}2] [VPOA-CH3], the concentration for half-maximal inhibition (IC50) in the data set on KB-3-1 cancer cell line is 16.21 ± 0.08 µM.
Same read-out and setting: the value for `CCCC[N+](CCCC)(CCCC)CCCC` [TBA Cl, reference compound] was 289 ± 12 µM.
In the case of `CC(=O)N[C@@H](CS)C(=O)O` [NAC, N-acetyl-L-cysteine, reference compound], the “effect of NAC on VPOA-6-induced apoptosis” value in the data set with KB-CP.5 cancer cells (KB-CP.5, VPOA-6 5 or 10 μM, NAC 3 mM, 48 hr) is on record as “rescues”; in the data set on KB-3-1 cancer cells (KB-3-1, VPOA-6 5 or 10 μM, NAC 3 mM, 48 hr), “rescues”. In the data set on KB-3-1 cells (KB-3-1, VPOA-6 5 and 10 μM, NAC 3 mM), the “effect of NAC on ROS and cell killing by VPOA-6” value is “reduces ROS and the cell killing by VPOA-6”.
For [V6O13{(OCH2)3CNH3}2] [VPOA-6], the “apoptosis by TUNEL and Annexin V-PE staining” value in the data set on cancer cells [6] was “dramatic apoptosis of the cancer cells”. In addition, the “toxicity in cell viability studies” value in data set [7] is “much less so”. Also, the IC50 in data set [1] (KB-CP.5 cells, 72 h) is 5.53 µM; in [8] it was 7.36 ± 0.54 µM; in [9] it was 3.7 µM; in the data set on KB-3-1 cancer cell line, 3.45 µM and < 5 µM; in [10], 8.69 ± 0.91 µM; in data set [14] it was 10.8 ± 0.49 µM. The same molecule showed an IC50 in data set [4] of 3.12 ± 0.05 µM. The “catalysis of ascorbic acid oxidation” value in [11] is reported as “efficiently catalyzes ascorbic acid oxidation”. The nephrotoxicity entry in data set [2] (mouse, in vivo) is listed as “not observed”. For the same molecule, the “selective killing: cytotoxicity in cancer versus normal proliferating cells” value in data set [5] (0-20 μM, 72 h) was “no cytotoxicity in normal proliferating cells; also recorded: induces cell death in cancer cells (Tumor) but not in normal proliferating cells (Normal)”. Further, the “product of GSH oxidation” value in data set [12] (H2O2, PBS pH 7.4, 37° C., after 30 minutes) is recorded as “over-oxidized product, GS(═O)SG”. Also, the “time for conversion of GSH to GSSG” value in data set [12] (air, GSH 10 mM, PBS pH 7.4, 37° C.) was at most 30 min. The “ROS and apoptosis in normal cells” value in the data set on normal cells was “ROS increase but did not show obvious apoptosis”. For the same molecule, the ROS levels entry in the data set with KB-CP.5 cancer cell is listed as “dramatic ROS increase”; with KB-3-1 cells (KB-3-1, 5 and 10 μM, versus non-treated cells), “significant surge in ROS levels”. Moreover, the apoptosis entry was “remarkable apoptosis” in the data set on KB-CP.5 cancer cells (KB-CP.5) and “Dose-dependent apoptosis” in the data set on KB-3-1 cancer cells (KB-3-1, 48 hr). In addition, in the data set with cancer cells [13], the “time to internalization by cancer cells” value is at most 8 h. In data set [3] (weekly for 24 days), the tumor inhibition effect result is “clearly demonstrated the antitumor effect”. The “tumor volume relative to control group at the end point” value in data set [3] (40 μmol/kg i.p., weekly for 24 days) is given as “less than 40%”. In data set [3] (i.p. or i.v., KB-3-1 xenografted mice), the “tumor growth inhibition, overall” value is reported as “significantly inhibits growth; also recorded: quite effective”. In addition, the tumor inhibition entry in [3] (i.v. administration) is “more significant tumor inhibition”. Moreover, in [15], the stability entry is reported as “stable”.
Turning to `OO` [hydrogen peroxide], the “interaction with VPOA-6 in killing cancer cells” value with cancer cells [16] is on record as “acted synergistically with VPOA-6”.
Take `[Na+].[O]=[V](=[O])[O-]` [NaVO3]: in data set [5], the “activity and selectivity, KB-3-1 versus normal cells” value is listed as “active but nonselective”.
The same measure, in the same setting: the value for `[Na+].[Na+].[Na+].[O]=[V]([O-])([O-])[O-]` [Na3VO4] was “active but nonselective”.
